In brackets after ≈: the same amount, converted by molar mass. Activity calls are given as the source filed them. The calls are words filed in the database; no cut-off is given here.
What was measured:
C6 = assay: Cytotoxicity against rat C6 cells assessed as cell viability after 96 hrs by MTT assay; type: functional, cell-based; settings: for IC50: C6, 96 h
WEHI-164 = assay: Cytotoxicity against mouse WEHI164 cells assessed as cell viability after 96 hrs by MTT assay; type: functional, cell-based; settings: WEHI-164, 96 h

SMILES: Sc1ncnc2nc[nH]c12 [MERCAPTOPURINE ANHYDROUS]
- IC50 (C6): 30.2 µg/mL (≈ 198 µM)
- IC50 (WEHI-164): 1.3 µg/mL (≈ 8.54 µM)

SMILES: CC(C)CCCCCOS(=O)(=O)O
- IC50 (C6): 545 µg/mL (≈ 2590 µM)
- IC50 (WEHI-164): 15 µg/mL (≈ 71.3 µM)

SMILES: CCC=CCCCCOS(=O)(=O)O
- IC50 (C6): 515 µg/mL (≈ 2470 µM)
- IC50 (WEHI-164): 12.2 µg/mL (≈ 58.6 µM)

SMILES: CC(C)CCC[C@@H](C)COS(=O)(=O)O
- Activity (C6): inactive
- IC50 (WEHI-164): 20.9 µg/mL (≈ 93.2 µM)

Reference: ChEMBL document CHEMBL1142557, “Novel bioactive sulfated alkene and alkanes from the mediterranean ascidian Halocynthia papillosa” (J Nat Prod, 2000)
